Experimental data taken from PubChem BioAssay AID1963862 (Molecular Pharmacology Branch, DTP, NCI, 2024).

System: KRAS patient-derived spheroids with HUVEC/MSC, viability
Assay: Anticancer human tumor 941728-121-R-J1-PDC patient-derived lung adenocarcinoma cell line growth inhibition [KRAS2]
Settings: for viability, T/C: stronger effect = lower value
How it was run: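 KRAS-mutant tumor cells were grown as spheroids with HUVEC endothelial cells and human MSCs as stroma. Targeted agents were tested alone and with KRAS pathway inhibitors. Doses started at or near clinical Cmax, or 10 microM, descending half-log.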

[1] = curve of first compound, second compound 0.1 µM
[2] = curve of first compound, second compound 0.316 µM
[3] = curve of first compound, second compound 1 µM
[4] = curve of first compound, second compound 3.16 µM
[5] = curve of first compound, second compound 10 µM
[6] = second compound 0.1 µM, first compound 0.01 µM
[7] = second compound 0.1 µM, first compound 0.0316 µM
[8] = second compound 0.1 µM, first compound 0.1 µM
[9] = second compound 0.1 µM, first compound 0.316 µM
[10] = second compound 0.1 µM, first compound 1 µM
[11] = second compound 0.1 µM, first compound 3.16 µM
[12] = second compound 0.316 µM, first compound 0.01 µM
[13] = second compound 0.316 µM, first compound 0.0316 µM
[14] = second compound 0.316 µM, first compound 0.1 µM
[15] = second compound 0.316 µM, first compound 0.316 µM
[16] = second compound 0.316 µM, first compound 1 µM
[17] = second compound 0.316 µM, first compound 3.16 µM
[18] = second compound 1 µM, first compound 0.01 µM
[19] = second compound 1 µM, first compound 0.0316 µM
[20] = second compound 1 µM, first compound 0.1 µM
[21] = second compound 1 µM, first compound 0.316 µM
[22] = second compound 1 µM, first compound 1 µM
[23] = second compound 1 µM, first compound 3.16 µM
[24] = second compound 3.16 µM, first compound 0.01 µM
[25] = second compound 3.16 µM, first compound 0.0316 µM
[26] = second compound 3.16 µM, first compound 0.1 µM
[27] = second compound 3.16 µM, first compound 0.316 µM
[28] = second compound 3.16 µM, first compound 1 µM
[29] = second compound 3.16 µM, first compound 3.16 µM
[30] = second compound 10 µM, first compound 0.0316 µM
[31] = second compound 10 µM, first compound 0.1 µM
[32] = second compound 10 µM, first compound 0.316 µM
[33] = second compound 10 µM, first compound 1 µM
[34] = second compound 10 µM, first compound 3.16 µM
[35] = second compound 0.1 µM, first compound 10 µM
[36] = second compound 0.316 µM, first compound 10 µM
[37] = second compound 1 µM, first compound 10 µM
[38] = second compound 3.16 µM, first compound 10 µM
[39] = curve of first compound, second compound 0.0316 µM
[40] = second compound 0.0316 µM, first compound 0.0316 µM
[41] = second compound 0.0316 µM, first compound 0.1 µM
[42] = second compound 0.0316 µM, first compound 0.316 µM
[43] = second compound 0.0316 µM, first compound 1 µM
[44] = second compound 0.0316 µM, first compound 3.16 µM
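Further: spheroids exposed to agents for seven days before readout.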

| Compound | IC50 [1] | IC50 [2] | IC50 [3] | IC50 [4] | viability, T/C [7] | viability, T/C [8] | viability, T/C [9] | viability, T/C [10] | viability, T/C [11] | viability, T/C [13] | viability, T/C [14] | viability, T/C [15] | viability, T/C [16] | viability, T/C [17] | viability, T/C [19] | viability, T/C [20] | viability, T/C [21] | viability, T/C [22] | viability, T/C [23] | viability, T/C [25] | also measured |
| --- | --- | --- | --- | --- | --- | --- | --- | --- | --- | --- | --- | --- | --- | --- | --- | --- | --- | --- | --- | --- | --- |
| CC(=O)OC12COC1CC(O)C1(C)C(=O)C(O)C3=C(C)C(OC(=O)C(O)C(NC(=O)OC(C)(C)C)c4ccccc4)CC(O)(C(OC(=O)c4ccccc4)C21)C3(C)C (stereo not given) + C=CC(=O)N1CCN(c2nc(=O)n(-c3c(C)ccnc3C(C)C)c3nc(-c4c(O)cccc4F)c(F)cc23)C(C)C1 | < 10 nM | < 10 nM | < 10 nM | < 10 nM | 17.1% | 19.8% | 18.1% | 21.7% | 20.2% | 17.4% | 17.4% | 20.2% | 20.4% | 18.3% | 19.2% | 16.4% | 19.1% | 20.6% | 20.1% | 21.9% | IC50 [5]: < 10 nM; viability, T/C [6]: 19.7%; viability, T/C [12]: 18.4%; viability, T/C [18]: 16.6%; viability, T/C [24]: 16.4%; viability, T/C [26]: 20.9%; viability, T/C [27]: 19.5%; viability, T/C [28]: 23.8%; viability, T/C [29]: 19%; viability, T/C (second compound 10 µM, first compound 0.01 µM): 25.9%; viability, T/C [30]: 24%; viability, T/C [31]: 29.5%; viability, T/C [32]: 26.2%; viability, T/C [33]: 28.8%; viability, T/C [34]: 25.5% |
| CC(C)n1nc(-c2ccc3oc(N)nc3c2)c2c(N)ncnc21 | – | – | – | – | – | – | – | – | – | – | – | – | – | – | – | – | – | – | – | – | viability, T/C (compound 0.000316 µM): 90% [middle of 5 runs] |
| Cn1nccc1Nc1nccc(-c2cc3c(s2)C(C)(C)N(CCN2CCOCC2)C3=O)n1 + COc1cc2nc(C)nc(NC(C)c3cc(N)cc(C(F)(F)F)c3)c2cc1OC1CCOC1 | 116 nM | 145 nM | 58.6 nM | < 31.6 nM | 60.1% | 52.7% | 43.7% | 39.5% | 39.2% | 64.1% | 55.3% | 38.9% | 38.6% | 39.1% | 55.9% | 44.3% | 41.1% | 37.5% | 38.4% | 46.5% | IC50 [5]: < 31.6 nM; viability, T/C [35]: 37.8%; viability, T/C [36]: 33.9%; viability, T/C [37]: 35.1%; viability, T/C [26]: 46.7%; viability, T/C [27]: 40.5%; viability, T/C [28]: 40.6%; viability, T/C [29]: 36.3%; viability, T/C [38]: 31.5%; viability, T/C [30]: 30.7%; viability, T/C [31]: 30.2%; viability, T/C [32]: 22.4%; viability, T/C [33]: 20.4%; viability, T/C [34]: 15%; viability, T/C (second compound 10 µM, first compound 10 µM): 11.2% |
| CC1(C)CCC(CN2CCN(c3ccc(C(=O)NS(=O)(=O)c4ccc(NCC5CCOCC5)c([N+](=O)[O-])c4)c(Oc4cnc5[nH]ccc5c4)c3)CC2)=C(c2ccc(Cl)cc2)C1 | – | – | – | – | – | – | – | – | – | – | – | – | – | – | – | – | – | – | – | – | viability, T/C (compound 1 µM): 51.1% [middle of 5 runs]; viability, T/C (compound 3.16 µM): 11.1% [middle of 5 runs]; viability, T/C (compound 10 µM): 5.66% [middle of 5 runs]; IC50 (curve of compound): 918 nM [middle of 5 runs] |
| COc1cc2nccc(Oc3ccc(NC(=O)C4(C(=O)Nc5ccc(F)cc5)CC4)cc3)c2cc1OC + C=CC(=O)N1CCN(c2nc(OCC3CCCN3C)nc3c2CCN(c2cccc4cccc(C)c24)C3)CC1CC#N | < 31.6 nM | < 31.6 nM | < 31.6 nM | < 31.6 nM | 14.3% | 15.8% | 15.3% | 13.3% | 5.66% | 15.4% | 16.3% | 13.1% | 13.7% | 4.32% | 14.2% | 14.5% | 10.5% | 7.23% | 1.37% | 0.1% | IC50 [39]: < 31.6 nM; viability, T/C [40]: 17.9%; viability, T/C [41]: 18%; viability, T/C [42]: 15.1%; viability, T/C [43]: 13.3%; viability, T/C [44]: 7.03%; viability, T/C (second compound 0.0316 µM, first compound 10 µM): 7.62%; viability, T/C [35]: 6.73%; viability, T/C [36]: 5.26%; viability, T/C [37]: 0.49%; viability, T/C [26]: 0.12%; viability, T/C [27]: 0.12%; viability, T/C [28]: 0.09%; viability, T/C [29]: 0.09%; viability, T/C [38]: 0.19% |
| CC(=O)OC12COC1CC(O)C1(C)C(=O)C(O)C3=C(C)C(OC(=O)C(O)C(NC(=O)OC(C)(C)C)c4ccccc4)CC(O)(C(OC(=O)c4ccccc4)C21)C3(C)C (stereo not given) + C=CC(=O)N1CCN(c2nc(OCC3CCCN3C)nc3c2CCN(c2cccc4cccc(C)c24)C3)CC1CC#N | < 10 nM | < 10 nM | < 10 nM | < 10 nM | 22.2% | 21.9% | 22.9% | 24.6% | 26.2% | 21.6% | 21.1% | 22.1% | 21.1% | 24.4% | 23.4% | 21.1% | 19.8% | 21.7% | 20.8% | 33.1% | IC50 [39]: < 10 nM; viability, T/C (second compound 0.0316 µM, first compound 0.01 µM): 28.2%; viability, T/C [40]: 28.4%; viability, T/C [41]: 26.8%; viability, T/C [42]: 25.7%; viability, T/C [43]: 29.1%; viability, T/C [44]: 26.7%; viability, T/C [6]: 24.6%; viability, T/C [12]: 22.8%; viability, T/C [18]: 21.2%; viability, T/C [24]: 27.9%; viability, T/C [26]: 26.4%; viability, T/C [27]: 27.3%; viability, T/C [28]: 26.9%; viability, T/C [29]: 27.9% |
